Test results taken from ChEMBL document CHEMBL1201862, “PubChem BioAssay data set” (2004).
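These data come from cells grown in 96-well plates and exposed to compound for 48 hours at five concentrations. GI50 marks 50% less growth.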 Activity calls are given as the source filed them. Rule as the data show it: active = GI50 up to about 1.1 µM and inactive = higher.

Assays:
Test in all cases: NCI tumour cell line growth inhibition, 48 h
SK-MEL-28 = tested on: SK-MEL-28
SW-620 = tested on: SW-620
SNB-19 = tested on: SNB-19
ACHN = tested on: ACHN
NCI-H522 = tested on: NCI-H522
SN12C = tested on: SN12C
UACC-62 = tested on: UACC-62
SK-MEL-5 = tested on: SK-MEL-5
UACC-257 = tested on: UACC-257
MCF7 = tested on: MCF7
PC-3 = tested on: PC-3
UO-31 = tested on: UO-31
TK-10 = tested on: TK-10
NCI/ADR-RES = tested on: NCI/ADR-RES
MDA-MB-231 = tested on: MDA-MB-231
OVCAR-3 = tested on: OVCAR-3
OVCAR-8 = tested on: OVCAR-8
M14 = tested on: M14
SF-295 = tested on: SF-295
T47D = tested on: T47D

Measured: GI50

CSCCCNC(=O)[C@H](CSC)NC(=O)c1csc(CCNC(=O)[C@@H](NSc2ccccc2[N+](=O)[O-])C(C)O)n1 (stereo not given in full)
inactive: SK-MEL-28 > 100 µM | SW-620 > 100 µM | SNB-19 > 100 µM | ACHN > 100 µM | NCI-H522 > 100 µM | SN12C > 100 µM | UACC-62 > 100 µM | SK-MEL-5 > 100 µM | UACC-257 > 100 µM | MCF7 > 100 µM | PC-3 > 100 µM | UO-31 > 100 µM | TK-10 > 100 µM | NCI/ADR-RES > 100 µM | MDA-MB-231 > 100 µM | OVCAR-3 > 100 µM | OVCAR-8 > 100 µM | M14 > 100 µM | SF-295 > 100 µM

O=c1oc2ccccc2c(O)c1C1c2c(c3ccccc3oc2=O)Oc2c1c(=O)oc1ccccc21
inactive: SK-MEL-28 30.8 µM | SW-620 38.2 µM | SNB-19 48.5 µM | T47D 38.4 µM | ACHN 28.4 µM | NCI-H522 39 µM | SN12C 30.1 µM | UACC-62 21.4 µM | SK-MEL-5 21 µM | UACC-257 34.8 µM | PC-3 50.6 µM | UO-31 19 µM | TK-10 51.9 µM | NCI/ADR-RES 60.7 µM | MDA-MB-231 32.4 µM | OVCAR-3 61.8 µM | OVCAR-8 32.1 µM

O=C(CCCCCCCCCCc1ccccc1)C1=C(O)CCCC1=O
inactive: SK-MEL-28 40.4 µM | SW-620 37.8 µM | SNB-19 46.2 µM | ACHN 28.1 µM | NCI-H522 27 µM | SN12C 35.2 µM | UACC-62 25.5 µM | SK-MEL-5 18.1 µM | UACC-257 34 µM | UO-31 22 µM | TK-10 42.2 µM | OVCAR-3 32.8 µM | OVCAR-8 24.4 µM | M14 41.2 µM | SF-295 22.8 µM

COc1cc(C(C)O)c[n+](Cc2ccccc2)c1 (stereo not given)
inactive: SK-MEL-28 > 100 µM | SW-620 > 100 µM | SNB-19 > 100 µM | ACHN > 100 µM | NCI-H522 > 100 µM | SN12C > 40.5 µM | UACC-62 > 100 µM | SK-MEL-5 > 100 µM | UACC-257 > 100 µM | UO-31 > 100 µM | TK-10 > 100 µM | OVCAR-3 > 100 µM | OVCAR-8 > 31.6 µM | M14 > 100 µM | SF-295 > 100 µM

CCOC(=O)C(C)N1C(=O)c2ccccc2S1(=O)=O (stereo not given)
inactive: SK-MEL-28 > 100 µM | SW-620 > 100 µM | SNB-19 > 100 µM | NCI-H522 > 100 µM | SN12C > 100 µM | UACC-62 > 100 µM | SK-MEL-5 > 100 µM | UACC-257 > 100 µM | MCF7 > 100 µM | UO-31 > 100 µM | NCI/ADR-RES > 100 µM | OVCAR-3 > 100 µM | OVCAR-8 > 100 µM | SF-295 > 100 µM

[N-]=[N+]=Nc1ccccc1-[n+]1noc([O-])c1Br
inactive: SK-MEL-28 > 100 µM | SW-620 > 100 µM | SNB-19 > 100 µM | ACHN > 100 µM | NCI-H522 > 100 µM | SN12C > 100 µM | UACC-62 > 100 µM | SK-MEL-5 > 100 µM | UACC-257 > 100 µM | UO-31 > 100 µM | TK-10 > 100 µM | OVCAR-3 > 100 µM | OVCAR-8 > 100 µM | M14 > 100 µM | SF-295 > 100 µM

C/C=C1/CCC2c3[nH]c4ccccc4c3CCN2C1 (stereo not given)
inactive: SK-MEL-28 > 100 µM | SW-620 > 100 µM | SNB-19 > 100 µM | ACHN > 100 µM | NCI-H522 > 100 µM | SN12C > 100 µM | UACC-62 60.8 µM | SK-MEL-5 37.2 µM | UACC-257 64.9 µM | UO-31 > 100 µM | TK-10 > 100 µM | OVCAR-3 > 100 µM | OVCAR-8 > 100 µM | M14 14.4 µM | SF-295 > 100 µM

CC(C)NC(=O)OCc1c(COC(=O)NC(C)C)c(-c2cc[n+](COC(=O)CC(C)(C)C)cc2)n2c1CCC2
inactive: SW-620 > 100 µM | SNB-19 > 100 µM | NCI-H522 > 100 µM | SN12C > 100 µM | SK-MEL-5 > 100 µM | UACC-257 > 100 µM | MCF7 > 100 µM | PC-3 > 100 µM | UO-31 > 100 µM | NCI/ADR-RES > 100 µM | MDA-MB-231 > 100 µM | OVCAR-3 > 100 µM | OVCAR-8 > 100 µM | M14 > 100 µM | SF-295 > 100 µM
